Measured values reported in article PMC8219378, “A putative structural mechanism underlying the antithetic effect of homologous RND1 and RhoD GTPases in mammalian plexin regulation” (eLife, 2021).
Values belong to the molecule of their own block, whether it stands above or below them.

Tests used:
[1] = target: T1, RhoD/plexin B2-RBD complex (Homo sapiens, UniProt O00212, Q75L); assay: X-ray crystal structure, […] Å; conditions: Mg2+; GTP-binding site of RhoD; RhoD loaded by EDTA exchange; complex with plexin B2 RBD
T1 construct: human RhoD 8-194 Q75L (catalytically dead), His6-tag removed by 3C protease, E. coli BL21(DE3); mouse plexin B2 intracellular region 1274-1842, tag removed, E. coli ArcticExpress(DE3), degraded in drops to RBD (1463-1565, domain-swapped dimer); with Plexin-B2 (Mus musculus)
T1 sequence (O00212 8-194 Q75L): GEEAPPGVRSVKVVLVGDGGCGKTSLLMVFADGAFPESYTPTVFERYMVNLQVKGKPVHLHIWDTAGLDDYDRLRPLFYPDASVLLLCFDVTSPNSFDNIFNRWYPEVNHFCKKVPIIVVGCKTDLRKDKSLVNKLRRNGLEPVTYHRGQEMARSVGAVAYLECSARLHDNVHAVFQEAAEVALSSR
T1 sequence (B2RXS4 1463-1565 partner): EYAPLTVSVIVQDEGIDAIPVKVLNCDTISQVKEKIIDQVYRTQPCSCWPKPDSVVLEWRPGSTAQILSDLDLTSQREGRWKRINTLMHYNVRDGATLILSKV

[2] = target: T2, human RhoD (residues 8-194) with the Q75L mutation, bound to GMP-PNP (human, UniProt O00212 8-194, Q75L); assay: crystal structure; plexin B2 (1274-1842) and GMP-PNP-loaded RhoD mixed at 1:1 molar ratio, 6 mg/mL; crystals grown for over a month at 20 C in 0.2 M MgCl2, 22% PEG3350, 100 mM MIB pH 6.8; molecular replacement, 3.1 A; two RhoD and two RBD in the asymmetric unit; conditions: both partners purified
T2 construct: Loaded with the GTP analogue GMP-PNP and Mg2+ before crystallization; His6 tag removed with human rhinovirus 3C protease; also called GMP-PNP-loaded RhoD; source: E. coli BL21 (DE3), purified (HisTrap, anion exchange, Superdex 75); not shown: His6, N-terminal, cleaved
T2 sequence (looked up): T1 sequence (O00212 8-194 Q75L)

Molecule: Nc1nc2c(ncn2[C@@H]2O[C@H](COP(=O)(O)OP(=O)(O)NP(=O)(O)O)[C@@H](O)[C@H]2O)c(=O)[nH]1 [GMP-PNP, guanosine 5′-[β,γ-imido]triphosphate]
X-ray crystal structure, 3.1 Å [1]: complex of mouse plexin B2 and human RhoD bound to the GTP analogue GMP-PNP

binding result [2]: binds
B1: mouse plexin B2 RBD (Rho-GTPase-binding domain), as found in the crystal (domain or fragment, UniProt B2RXS4 1463-1565, looked up)
chain: T1 sequence (B2RXS4 1463-1565 partner)
notes: Plexin B2, mouse; Expressed as the intracellular region without the juxtamembrane region (residues 1274-1842); it degraded during crystallization and the crystal held only the RBD, built as residues 1463-1509 and 1510-1565; The range is that of the residues modelled in the structure; In the crystal two RBD chains form a domain-swapped dimer (swap between residues 1509 and 1510), which the authors …
